Reference: patent US10258610B2, “Pharmaceutical compositions comprising rifaximin, processes for their preparation and their use in the treatment of vaginal infections” (ALFASIGMA S.P.A., priority 2011, dated 2019)
Entries after “also recorded” stand apart in the source; their conditions may differ.

Key:
[1] = tested on: Gardnerella vaginalis; experiment: Vaginal microbiota by quantitative real-time PCR; type: in vivo; conditions: for Target DNA/genomic vaginal DNA, Gardnerella vaginalis / Target DNA/genomic or vaginal DNA, Gardnerella vaginalis: average; for Target DNA/genomic or vaginal DNA, Gardnerella vaginalis: visit V4, patients maintaining recovery
Protocol: During the clinical trial, described in Example 12, samples of vaginal cleansing were collected and the composition of vaginal microbiota was determined by means of the quantitative real-time PCR.
With the real-time PCR the DNA samples are amplified with gender- and/or species-specific primers whose target is the 16S rRNA bacterial gene or the 16S-23 S rRNA region.
In particular, specific probes were used for the Lactobacillus gender, for Gardnerella vaginalis, for Atopobium, for Prevotella and for Veillonella, since they represent the main bacterial groups suffering from modifications in case of bacterial vaginosis.
Table 28 reports the values of real-time PCR relating to bacterial genders and species quantified in vaginal cleansings of women belonging to the different treatment groups, expressed as total target DNA ng/genomic DNA μg, for microbial species tested for each group at the visit V3 if compared to the visit V1.
The composition of vaginal microbiota was determined by means of the quantitative real-time PCR technique of patients maintaining their recovery at the visit V4, 30-40 days after the end of the therapy, and the DNA samples amplified with gender- and/or species-specific primers were evaluated by means of the real-time PCR technique.
Table 29 reports the values of real-time PCR relating to target bacterial genders and species quantified in vaginal rinses of women belonging to the different treatment groups, expressed as total target DNA ng/genomic DNA μg, for microbial species tested for each group at the visit V4 when compared to the values observed at the visit V1 of all treated patients.

[2] = Phase I systemic absorption of rifaximin vaginal tablets in healthy volunteers; type: in vivo, human; conditions: single 100 mg vaginal tablet, 30 minutes to 24 hours; LLOQ 0.5 ng/ml
Protocol: The samples were analyzed by liquid chromatography equipped with mass spectrometry detector, with a lower limit of quantization (LLOQ) of rifaximin concentration 0.5 ng/ml.

[3] = tested on: bacterial vaginosis; experiment: Phase II clinical trial, recovery by Amsel criteria and Nugent score; type: in vivo, human; conditions: for Recovery of patients after relapse of bacterial vaginosis / Recovery of patients suffering from a first episode of bacterial vaginosis: visit V4 as titled, Amsel and Nugent
Description: The example describes the clinical trial Phase II carried out on 114 patients affected by bacterial vaginosis, non-pregnant, having an age between 18 and 50 years. The diagnosis of bacterial vaginosis was based on Amsel criteria, wherein at least three criteria out of four must be positive, and on the Nugent score, wherein a score higher than four indicates the presence of pathogenic vaginal bacteria. The objectives of the trial were the evaluation of recovery from bacterial vaginosis both according to Amsel criteria (Amsel index <3) and according to Nugent score (Nugent index <4) 7-10 days after the end of the therapy. The secondary objectives of the trial were the recovery, separately evaluated according to Amsel criteria and to Nugent score, at the first control visit (V3), the continued recovery at the second control visit (V4) and the evaluation of the composition of vaginal microbiota by means of PCR and PCR-DGGE. In particular, the patients affected by bacterial vaginosis and not affected by contemporaneous viral, protozoan and fungal vaginal infections were assigned to one of the following treatment groups using a centralized randomization procedure and a double-blind experimental design: Group A: 21 patients receiving a vaginal tablet of rifaximin containing 100 mg rifaximin, prepared according to Example 2, once a day for five days, in the evening; Group B: 23 patients receiving a vaginal tablet of rifaximin containing 25 mg rifaximin, prepared according to Example 1, once a day for five days, in the evening; Group C: 19 patients receiving a vaginal tablet of rifaximin containing 100 mg rifaximin, prepared according to Example 2, once a day for two days, in the evening, plus a vaginal tablet of placebo, once a day for the remaining three days, in the evening; Group D: 22 patients receiving a placebo tablet prepared according to Example 1, wherein the rifaximin amount was replaced by lactose monohydrate, once a day for five days, in the evening. The study included a screening visit (V1) followed by a randomization visit after seven days (V2), by a first control visit 7-10 days after the end of the therapy (V3) and by a second and last control visit 28-35 days after the end of the therapy (V4). The evaluation of the attainment of the primary objective was carried out during visit V3, and the evaluation of the attainment of the secondary objectives was evaluated during the second and last visit (V4). Table 18 reports the percent recovery from the disease at the visit V3, according to both evaluation criteria, namely the clinical one (Amsel) and the microbiological (Nugent). The recovery was evaluated according to Nugent score by using a Gram stained slide and by evaluating the proportion between Lactobacilli and other bacteria such as Gram-variable or Gram-negative coccobacilli, Gram-variable curved bacilli.

[4] = Phase II clinical trial, adverse events; type: in vivo, human
Description: The adverse events reported by patients were registered, and the most frequent one was the rifaximin related vulvovaginal itching and burning.
In Table 23 it is reported the percentage of patients belonging to different treatment groups who reported adverse events both systemic and local, vulvovaginal itching and burning related to rifaximin.

[5] = visit V3, Group A: 1 tablet 100 mg × 5 days
[6] = visit V3, Group B: 1 tablet 25 mg × 5 days
[7] = visit V3, Group C: 1 tablet 100 mg × 2 days
[8] = Group A: 1 tablet 100 mg × 5 days
[9] = Group B: 1 tablet 25 mg × 5 days
[10] = Group C: 1 tablet 100 mg × 2 days
[11] = visit V3, Group A: 1 tablet 100 mg × 5 days, listed as rifaximin
[12] = visit V3, Group B: 1 tablet 25 mg × 5 days, listed as rifaximin
[13] = visit V3, Group C: 1 tablet 100 mg × 2 days, listed as rifaximin

Compound: CO[C@H]1/C=C/O[C@@]2(C)Oc3c(C)c(O)c4c(O)c(c5c(nc6cc(C)ccn65)c4c3C2=O)NC(=O)/C(C)=C\C=C\[C@H](C)[C@H](O)[C@@H](C)[C@@H](O)[C@@H](C)[C@H](OC(C)=O)[C@@H]1C [Rifaximin]
- change of Gardnerella vaginalis concentration by real-time PCR ([1]; all groups treated with rifaximin, compared to placebo): reduction
- Target DNA/genomic vaginal DNA, Gardnerella vaginalis ([1]; visit V1 (before therapy), Group A: 1 tablet 100 mg × 5 days): 34.92 ng/µg
- Target DNA/genomic vaginal DNA, Gardnerella vaginalis ([1]; visit V1 (before therapy), Group B: 1 tablet 25 mg × 5 days): 119.4 ng/µg
- Target DNA/genomic vaginal DNA, Gardnerella vaginalis ([1]; visit V1 (before therapy), Group C: 1 tablet 100 mg × 2 days): 66.74 ng/µg
- Target DNA/genomic vaginal DNA, Gardnerella vaginalis [1, 5]: 23.56 ng/µg
- Target DNA/genomic vaginal DNA, Gardnerella vaginalis [1, 6]: 66.26 ng/µg
- Target DNA/genomic vaginal DNA, Gardnerella vaginalis [1, 7]: 29.44 ng/µg
- Target DNA/genomic or vaginal DNA, Gardnerella vaginalis [1, 8]: 3.067 ng/µg
- Target DNA/genomic or vaginal DNA, Gardnerella vaginalis [1, 9]: 17.57 ng/µg
- Target DNA/genomic or vaginal DNA, Gardnerella vaginalis [1, 10]: 75.09 ng/µg
- rifaximin plasma concentrations [2]: under the analytical detection limit
- Patients with decrease Nugent score ≥8 points [3, 5]: 14.29%
- Patients with decreased Nugent score ≤0 points (not responding) [3, 5]: 9.52%
- Patients with decreased Nugent score ≥3 points [3, 5]: 52.4%
- Patients with decreased Nugent score ≥5 points [3, 5]: 28.6%
- Recovered patients, both criteria (Amsel and Nugent) [3, 5]: 25.9%
- Recovered patients, clinical evaluation criteria (Amsel) [3, 5]: 66.7%
- Recovered patients, microbiological evaluation criteria (Nugent) [3, 5]: 25.9%
- Patients with decreased Nugent score ≥3 points [3, 11]: higher than 50%
- Patients with decreased Nugent score ≥5 points [3, 11]: about 28%
- Recovered patients, microbiological evaluation criteria (Nugent) [3, 11]: about 25%
- Patients with decrease Nugent score ≥8 points [3, 6]: 17.39%
- Patients with decreased Nugent score ≤0 points (not responding) [3, 6]: 17.39%
- Patients with decreased Nugent score ≥3 points [3, 6]: 65.2%
- Patients with decreased Nugent score ≥5 points [3, 6]: 47.8%
- Recovered patients, both criteria (Amsel and Nugent) [3, 6]: 48.0%
- Recovered patients, clinical evaluation criteria (Amsel) [3, 6]: 80.0%
- Recovered patients, microbiological evaluation criteria (Nugent) [3, 6]: 48.0%
- Patients with decreased Nugent score ≥3 points [3, 12]: higher than 65%
- Patients with decreased Nugent score ≥5 points [3, 12]: about 48%
- Recovered patients, microbiological evaluation criteria (Nugent) [3, 12]: 47%
- Patients with decrease Nugent score ≥8 points [3, 7]: 15.79%
- Patients with decreased Nugent score ≤0 points (not responding) [3, 7]: 36.84%
- Patients with decreased Nugent score ≥3 points [3, 7]: 36.9%
- Patients with decreased Nugent score ≥5 points [3, 7]: 26.3%
- Recovered patients, both criteria (Amsel and Nugent) [3, 7]: 36.0%
- Recovered patients, clinical evaluation criteria (Amsel) [3, 7]: 72.0%
- Recovered patients, microbiological evaluation criteria (Nugent) [3, 7]: 36.0%
- Patients with decreased Nugent score ≥3 points [3, 13]: higher than 30%
- Patients with decreased Nugent score ≥5 points [3, 13]: about 26%
- Recovered patients, microbiological evaluation criteria (Nugent) [3, 13]: about 36%
- Recovered patients, both criteria (Amsel and Nugent) ([3]; visit V4, Group A: 1 tablet 100 mg × 5 days): 14.8%
- Recovered patients, both criteria (Amsel and Nugent) ([3]; visit V4, Group B: 1 tablet 25 mg × 5 days): 28.0%
- Recovered patients, both criteria (Amsel and Nugent) ([3]; visit V4, Group C: 1 tablet 100 mg × 2 days): 4.0%
- Recovery of patients after relapse of bacterial vaginosis [3, 8]: 38.5%
- Recovery of patients suffering from a first episode of bacterial vaginosis [3, 8]: 14.3%
- Recovery of patients after relapse of bacterial vaginosis [3, 9]: 53.8%
- Recovery of patients suffering from a first episode of bacterial vaginosis [3, 9]: 41.7%
- Recovery of patients after relapse of bacterial vaginosis [3, 10]: 46.2%
- Recovery of patients suffering from a first episode of bacterial vaginosis [3, 10]: 25.0%
- Patients with adverse events [4, 8]: 35.7%
- Patients with vulvovaginal burning [4, 8]: 3.6%
- Patients with vulvovaginal itching [4, 8]: 25.0%
- Patients with adverse events [4, 9]: 34.6%
- Patients with vulvovaginal burning [4, 9]: 19.2%
- Patients with vulvovaginal itching [4, 9]: 19.2%
- Patients with adverse events [4, 10]: 7.7%
- Patients with vulvovaginal burning [4, 10]: 3.8%
- Patients with vulvovaginal itching [4, 10]: 3.8%
- rifaximin related vulvovaginal candidiasis during treatment ([4]; any of the treated groups): none of the treated groups showed any case of rifaximin-related vulvovaginal candidiasis; also recorded: No rifaximin related vulvovaginal candidiasis
- adverse event in the clinical study ([4]; patients treated with 25 mg and 100 mg rifaximin in vaginal tablets): did not show any particular adverse event
